This is an account of results in patent publication US20150126467A1, “USE OF ALGINATE OLIGOMERS TO ENHANCE THE EFFECTS OF ANTIFUNGAL AGENTS” (AlgiIPharma AS, priority 2011, published 2015).

Structures are written as SMILES. Values after ≈ are worked out from the molar mass of the structure shown. Where two headings read alike, the source gives them in different places.

Type in all cases: cell-based
For test [1], the system named is Aspergillus flavus CCUG 28296. Put plainly: Robotic MIC assay, Aspergillus (Example 4). Conditions: Aspergillus flavus, CCUG23451 / CCUG28296, 48 h, Mueller-Hinton broth, read-out: Minimum Inhibitory Concentration (MIC). The protocol:
(§1) Aspergillus sp. was grown at 30° C. for 96 h on YM-agar. Spores and aerial mycelium was cut out from the agar, suspended in 1 ml YM-broth and dispersed with glass beads (1 mm) in a mini bead beater for 2 min. Glycerol was added to the suspension to 10% and frozen at −80° C.
(§2) Each batch of frozen stock culture was then characterized in separate growth experiments using Mueller-Hinton broth to determine the minimum amount of inoculum giving satisfactory growth after 48 h under the conditions relevant for the MIC assay. This inoculation procedure is used in order to reduce day to day variation in bioassays.
(§3) Robotic minimum inhibitory concentration (MIC) assay was performed as follows. OligoG CF-5/20 was dissolved in medium (Mueller-Hinton broth) to 1.25 times of the desired assay concentrations (2, 6 and 10%). […].
(§4) Two-fold serial dilutions of antifungal agents were made in medium with different concentrations of OligoG CF-5/20, and the solutions were placed in four parallel wells in Nunc 384-well micro plates (30 μl per well in Nunc 242757 microplates). A group of 8 wells with no addition of antifungal agents for each OligoG CF-5/20 concentration was included on each micro plate as growth reference. Each well in the 384-well assay plates was added 7.5 μl of the MH medium inoculated with frozen stock culture of the relevant strains.
(§5) The microplates were placed in plastic bags and incubated without shaking at 34° C. The optical density at 600 nm in the microwells was measured after approximately 24 and 48 hours of incubation. […]

Test [2] deals with various Aspergillus species. Put plainly: Robotic MIC assay, summary over species (Example 4). Conditions: Aspergillus species tested. The protocol: as §1, §2, §3, §4, §5
Test [3] relates to C. krusei 141/03 (candidosis). Put plainly: Robotic MIC assay, Candida strains (Example 2). Conditions: Pichia kudriavzevii, 48 h, Mueller-Hinton broth, read-out: Minimum Inhibitory Concentration (MIC). The protocol: (§6) A robotic MIC Assay was performed as follows. OligoG CF-5/20 were dissolved in medium (Mueller-Hinton broth or M19 broth depending on experiment) to 1.25 times of the desired assay concentrations (2, 6 and 10%). The antifungal agents under test were dissolved in medium without OligoG CF-5/20 and in medium with OligoG CF-5/20 at a concentration of 1.25 times the highest desired assay concentrations. For experiments where the effect of adding different concentrations of Na^+ was investigated, NaCl was dissolved in medium to the desired concentrations (10, 30 and 50 mM).
(§7) Two-fold serial dilutions of antifungal agents were made in medium with different concentrations of OligoG CF-5/20, and the solutions were placed in four parallel wells in Nunc 384-well micro plates (30 μl per well in Nunc 242757 microplates). A group of 8 wells with no addition of antifungal agents for each OligoG CF-5/20 concentration was included on each microplate as growth reference. To each well in the 384-well assay plates was added 7.5 μl of medium inoculated with a frozen stock culture of Candida albicans (strain CCUG 39343).
(§8) The micro plates were placed in plastic bags and incubated without shaking at 34° C. The optical density at 600 nm in the microwells was measured after approximately 13, 18, 24 and 34 hours of incubation, and the relative growth yield in each well was calculated based on the growth in the reference groups.
(§9) The robotic assay described in Example 1 was employed in this Example. Strains were grown in Mueller-Hinton broth (LAB114 from Lab M Limited) and MIC values (μg ml-1) were determined for each antifungal after incubation for 48 h in the presence of 0, 2, 6 and 10% OligoG CF-5/20 G-fragments. […] OligoG CF-5/20 G-fragments were provided by AlgiPharma AS, Norway.
(§10) Candida strains used were as follows: • C. albicans CCUG 39343 (strain from culture collection) • C. parapsillosis ATCC 22019T (strain from culture collection) • C. krusei 141/03 (candidosis) • C. krusei 249/03(2) (ulceration) • C. lusitaniae 994/01(2) (candidosis) • C. tropicalis 12 (vaginal) • C. tropicalis 75 (vaginal) • C. tropicalis 519468 (urinary) • C. tropicalis 544123 (urinary) • C. tropicalis 250/03 (candidosis) • C. tropicalis AG1 (oral) • C. tropicalis T2.2 (oral)

The next test concerns C. tropicalis AG1 (oral). In words: Robotic MIC assay, Candida strains (Example 2). To be noted: Candida tropicalis, 48 h, Mueller-Hinton broth, read-out: Minimum Inhibitory Concentration (MIC). The protocol: as §6, §7, §8, §9, §10
The test system of test [4] is C. tropicalis T2.2 (oral). Put plainly: Robotic MIC assay, Candida strains (Example 2). To be noted: Candida tropicalis, 48 h, Mueller-Hinton broth, read-out: Minimum Inhibitory Concentration (MIC). The protocol:
as §6, §7, §8, §9, §10

Test [5] has as its system C. tropicalis 12 (vaginal). Put plainly: Robotic MIC assay, Candida strains (Example 2). To be noted: Candida tropicalis, 48 h, Mueller-Hinton broth, read-out: Minimum Inhibitory Concentration (MIC). The protocol:
as §6, §7, §8, §9, §10

Test [6] concerns C. lusitaniae 994/01(2) (candidosis). In words: Robotic MIC assay, Candida strains (Example 2). Conditions: Clavispora lusitaniae, 48 h, Mueller-Hinton broth, read-out: Minimum Inhibitory Concentration (MIC). The protocol:
as §6, §7, §8, §9, §10

Test [7] has as its system C. tropicalis 75 (vaginal). In words: Robotic MIC assay, Candida strains (Example 2). To be noted: Candida tropicalis, 48 h, Mueller-Hinton broth, read-out: Minimum Inhibitory Concentration (MIC). The protocol: as §6, §7, §8, §9, §10
Another test has as its system C. albicans CCUG 39343. In words: Robotic MIC assay, Candida strains (Example 2). To be noted: Candida albicans, CCUG39343, 48 h, Mueller-Hinton broth, read-out: Minimum Inhibitory Concentration (MIC). On the procedure:
as §6, §7, §8, §9, §10

In test [8] the test system is C. krusei 249/03(2) (ulceration). Put plainly: Robotic MIC assay, Candida strains (Example 2). Conditions: Pichia kudriavzevii, 48 h, Mueller-Hinton broth, read-out: Minimum Inhibitory Concentration (MIC). The protocol: as §6, §7, §8, §9, §10
Test [9] relates to C. tropicalis 519468 (urinary). Put plainly: Robotic MIC assay, Candida strains (Example 2). To be noted: Candida tropicalis, 48 h, Mueller-Hinton broth, read-out: Minimum Inhibitory Concentration (MIC). On the procedure: as §6, §7, §8, §9, §10
The subject of test [10] is C. tropicalis 544123 (urinary). Put plainly: Robotic MIC assay, Candida strains (Example 2). Conditions: Candida tropicalis, 48 h, Mueller-Hinton broth, read-out: Minimum Inhibitory Concentration (MIC). On the procedure: as §6, §7, §8, §9, §10
Test [11] relates to C. tropicalis 250/03 (candidosis). In words: Robotic MIC assay, Candida strains (Example 2). To be noted: Candida tropicalis, 48 h, C. tropicalis 250/03 Candiosis, Mueller-Hinton broth, read-out: Minimum Inhibitory Concentration (MIC). On the procedure: as §6, §7, §8, §9, §10
The mark [12] stands for this setting: A. flavus CCUG 23451, 0% OligoG.
[13] abbreviates: A. flavus CCUG 23451, 2% OligoG.
[14] abbreviates: A. flavus CCUG 23451, 6% OligoG.
The mark [15] stands for this setting: A. flavus CCUG 23451, 10% OligoG.

Take `C[C@@H]1[C@H](O)[C@@H](C)/C=C/C=C/C=C/C=C/C=C/C=C/C=C/[C@H](O[C@@H]2O[C@H](C)[C@@H](O)[C@H](N)[C@@H]2O)C[C@@H]2O[C@](O)(C[C@@H](O)C[C@@H](O)[C@H](O)CC[C@@H](O)C[C@@H](O)CC(=O)O[C@H]1C)C[C@H](O)[C@H]2C(=O)O` [Amphotericin B, amphotericin B]: the MIC in [1] (setting [12]) was 0.75 µg/mL (≈ 0.812 µM); in test [1] (setting [13]), 0.375 µg/mL (≈ 0.406 µM); in test [1] (setting [14]) it was 0.375 µg/mL (≈ 0.406 µM); in [1] (setting [15]), 0.188 µg/mL (≈ 0.203 µM). The “effect of addition of OligoG CF-5/20 on MIC values” in test [2] is reported as “reduction in MIC values”.
Turning to `OC(Cn1cncn1)(Cn1cncn1)c1ccc(F)cc1F` [Fluconazole, fluconazole], the MIC worked out at 64 µg/mL (≈ 209 µM) in [1] (setting [12]); 64 µg/mL (≈ 209 µM) in test [1] (setting [13]); 32 µg/mL (≈ 104 µM) in test [1] (setting [14]); 32 µg/mL (≈ 104 µM) in test [1] (setting [15]); 128 µg/mL (≈ 418 µM) in [3] (0% OligoG); 64 µg/mL (≈ 209 µM) in test [3] (2% OligoG). Also, the MIC in test [3] (6% OligoG) was 64 µg/mL (≈ 209 µM); in test [3] (10% OligoG), 64 µg/mL (≈ 209 µM); with C. tropicalis AG1 (oral) (0% OligoG), 128 µg/mL (≈ 418 µM); in the test on C. tropicalis AG1 (oral) (2% OligoG) it was more than 128 µg/mL; with C. tropicalis AG1 (oral) (6% OligoG), 0.5 µg/mL (≈ 1.63 µM); with C. tropicalis AG1 (oral) (10% OligoG), 0.125 µg/mL (≈ 0.408 µM). The MIC in test [4] (0% OligoG) was more than 128 µg/mL; in test [4] (2% OligoG), 0.5 µg/mL (≈ 1.63 µM); in test [4] (6% OligoG), 0.25 µg/mL (≈ 0.816 µM); in test [4] (10% OligoG), less than 0.125 µg/mL; in [5] (0% OligoG), 1 µg/mL (≈ 3.27 µM); in test [5] (2% OligoG) it was 1 µg/mL (≈ 3.27 µM). The MIC in [5] (6% OligoG) is less than 0.125 µg/mL; in test [5] (10% OligoG), less than 0.125 µg/mL; in test [6] (0% OligoG), 0.5 µg/mL (≈ 1.63 µM); in test [6] (2% OligoG), 0.25 µg/mL (≈ 0.816 µM); in [6] (6% OligoG) it was less than 0.125 µg/mL; in test [6] (10% OligoG) it was less than 0.125 µg/mL. Besides, the MIC in test [7] (0% OligoG) was 2 µg/mL (≈ 6.53 µM); in [7] (2% OligoG), 1 µg/mL (≈ 3.27 µM); in test [7] (6% OligoG) it was 0.5 µg/mL (≈ 1.63 µM); in test [7] (10% OligoG) it was 0.25 µg/mL (≈ 0.816 µM); in the test on C. albicans CCUG 39343 (0% OligoG), 16 µg/mL (≈ 52.2 µM); in the test on C. albicans CCUG 39343 (2% OligoG) it was 16 µg/mL (≈ 52.2 µM). Moreover, the MIC in the test with C. albicans CCUG 39343 (6% OligoG) was determined as 8 µg/mL (≈ 26.1 µM); in the test with C. albicans CCUG 39343 (10% OligoG), 4 µg/mL (≈ 13.1 µM); in [8] (0% OligoG), 8 µg/mL (≈ 26.1 µM); in test [8] (2% OligoG) it was 4 µg/mL (≈ 13.1 µM); in test [8] (6% OligoG), 2 µg/mL (≈ 6.53 µM); in [8] (10% OligoG) it was 1 µg/mL (≈ 3.27 µM). Also, the MIC in test [9] (0% OligoG) is 128 µg/mL (≈ 418 µM); in [9] (2% OligoG) it was 1 µg/mL (≈ 3.27 µM); in test [9] (6% OligoG) it was 0.5 µg/mL (≈ 1.63 µM); in test [9] (10% OligoG), 0.25 µg/mL (≈ 0.816 µM); in test [10] (0% OligoG), 1 µg/mL (≈ 3.27 µM); in test [10] (2% OligoG) it was 1 µg/mL (≈ 3.27 µM). The MIC is 0.5 µg/mL (≈ 1.63 µM) in test [10] (6% OligoG); 0.25 µg/mL (≈ 0.816 µM) in [10] (10% OligoG); 8 µg/mL (≈ 26.1 µM) in test [11] (0% OligoG); 4 µg/mL (≈ 13.1 µM) in test [11] (2% OligoG); 2 µg/mL (≈ 6.53 µM) in [11] (6% OligoG); 2 µg/mL (≈ 6.53 µM) in test [11] (10% OligoG).
On to `Clc1ccc(COC(Cn2ccnc2)c2ccc(Cl)cc2Cl)c(Cl)c1` (stereo not shown) [Miconazole, miconazole], for which the MIC in test [1] (setting [12]) stood at 1 µg/mL (≈ 2.4 µM); in test [1] (setting [13]) it was 0.25 µg/mL (≈ 0.601 µM); in test [1] (setting [14]), 0.25 µg/mL (≈ 0.601 µM); in test [1] (setting [15]), 0.25 µg/mL (≈ 0.601 µM). Besides, the “effect of addition of OligoG CF-5/20 on MIC values” in [2] is recorded as “reduction in MIC values”.
